# From ChEMBL document CHEMBL1201862, “PubChem BioAssay data set” (2004)
#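 In this assay, cells in 96-well plates receive the compound at five concentrations for 48 hours. Endpoints are linearly interpolated between the surrounding concentrations. The concentration for 50% growth inhibition is given as GI50.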 Active and inactive are the calls of the source. Rule as the data show it: active = GI50 up to about 1.1 µM and inactive = higher.
# How the values were obtained:
# Assay in all cases: NCI-60 cell line screen, 48 h
# [1] = test system: 786-0
# [2] = test system: A549
# [3] = test system: ACHN
# [4] = test system: HCT-15
# [5] = test system: HOP-92
# [6] = test system: KM12
# [7] = test system: MDA-MB-231
# [8] = test system: MOLT-4
# [9] = test system: Malme-3M
# [10] = test system: NCI-H522
# [11] = test system: OVCAR-3
# [12] = test system: OVCAR-5
# [13] = test system: SNB-19
# [14] = test system: SR
# [15] = test system: T47D
# [16] = test system: TK-10
# [17] = test system: UACC-62
# [18] = test system: Hs-578T
# [19] = test system: SNB-75
# [20] = test system: CCRF-CEM
Compound,GI50 [1],GI50 [2],GI50 [3],GI50 [4] [µM],GI50 [5],GI50 [6],GI50 [7],GI50 [8],GI50 [9],GI50 [10],GI50 [11],GI50 [12],GI50 [13],GI50 [14],GI50 [15],GI50 [16],GI50 [17],GI50 [18],GI50 [19],GI50 [20]
S=C(S)NCCCn1ccnc1,> 100 µM (inactive),> 100 µM (inactive),> 100 µM (inactive),> 100,> 100 µM (inactive),> 100 µM (inactive),> 100 µM (inactive),> 100 µM (inactive),> 100 µM (inactive),> 100 µM (inactive),> 100 µM (inactive),> 100 µM (inactive),> 100 µM (inactive),> 100 µM (inactive),> 100 µM (inactive),> 100 µM (inactive),> 100 µM (inactive),–,–,–
Cc1ccc(C2=Nc3ccccc3SC(c3cccc([N+](=O)[O-])c3)C2)cc1 (stereo not drawn),6.3 µM (inactive),26.2 µM (inactive),> 100 µM (inactive),48.1,10.4 µM (inactive),8.04 µM (inactive),40.6 µM (inactive),–,26.7 µM (inactive),9.59 µM (inactive),8.59 µM (inactive),> 100 µM (inactive),26.9 µM (inactive),–,10.7 µM (inactive),14.5 µM (inactive),> 100 µM (inactive),14.3 µM (inactive),11.4 µM (inactive),–
Cc1ccc(C(CC(=O)C(C)(C)CN2CCCCC2)SCCS(=O)(=O)O)cc1 (stereo not drawn),26.2 µM (inactive),36.1 µM (inactive),25.2 µM (inactive),22.6,17.1 µM (inactive),31.1 µM (inactive),34.7 µM (inactive),20.8 µM (inactive),26.4 µM (inactive),25.8 µM (inactive),15.5 µM (inactive),20.9 µM (inactive),57.4 µM (inactive),12.2 µM (inactive),–,25.9 µM (inactive),21.7 µM (inactive),30.7 µM (inactive),31.3 µM (inactive),19.3 µM (inactive)
COc1ccc(C2c3c[nH]nc3CC3CCCCC32)cc1 (stereo not drawn),18.6 µM (inactive),14.5 µM (inactive),19 µM (inactive),15.7,–,–,14 µM (inactive),17.7 µM (inactive),19.5 µM (inactive),19.8 µM (inactive),15.5 µM (inactive),20.5 µM (inactive),18.2 µM (inactive),20.9 µM (inactive),3.99 µM (inactive),19.7 µM (inactive),11.9 µM (inactive),–,13.1 µM (inactive),21.9 µM (inactive)
CN(C)C(=O)C(F)(F)C(c1ccc(C(F)(F)F)cc1)C1C(=O)N(C)C(=O)N(C)C1=O (stereo not drawn),> 100 µM (inactive),> 100 µM (inactive),> 100 µM (inactive),> 100,> 100 µM (inactive),> 100 µM (inactive),> 100 µM (inactive),–,–,–,> 100 µM (inactive),> 100 µM (inactive),> 100 µM (inactive),–,> 100 µM (inactive),> 100 µM (inactive),> 100 µM (inactive),–,> 100 µM (inactive),> 100 µM (inactive)
CN(C)c1nncc2[nH]nnc12,> 100 µM (inactive),> 100 µM (inactive),> 100 µM (inactive),> 100,> 100 µM (inactive),> 100 µM (inactive),–,> 100 µM (inactive),92.3 µM (inactive),> 100 µM (inactive),> 100 µM (inactive),> 100 µM (inactive),–,> 100 µM (inactive),> 100 µM (inactive),> 100 µM (inactive),> 100 µM (inactive),–,> 100 µM (inactive),> 100 µM (inactive)
CN(C)CCN(/C(=N/c1ccccc1)N1CCCC1)c1ccccc1,> 10 µM (inactive),58.3 µM (inactive),> 100 µM (inactive),26.8,96.8 µM (inactive),20 µM (inactive),–,4.92 µM (inactive),> 100 µM (inactive),16.5 µM (inactive),37.3 µM (inactive),> 100 µM (inactive),> 100 µM (inactive),31.8 µM (inactive),> 100 µM (inactive),> 100 µM (inactive),11.9 µM (inactive),> 100 µM (inactive),49 µM (inactive),8.69 µM (inactive)
COC(=O)c1c(O)c(C#N)c2[nH]c3ccccc3n2c1=O,> 100 µM (inactive),> 100 µM (inactive),> 100 µM (inactive),> 100,> 100 µM (inactive),> 100 µM (inactive),> 100 µM (inactive),> 100 µM (inactive),> 100 µM (inactive),> 100 µM (inactive),> 100 µM (inactive),> 100 µM (inactive),> 100 µM (inactive),> 100 µM (inactive),–,> 100 µM (inactive),> 100 µM (inactive),> 100 µM (inactive),> 100 µM (inactive),> 100 µM (inactive)
COc1cc(NC(C)=O)ccc1C(=O)NN1C(=O)/C(=C/c2ccco2)N=C1c1ccccc1,24.3 µM (inactive),> 50 µM (inactive),> 50 µM (inactive),> 50,> 50 µM (inactive),–,–,14.5 µM (inactive),> 50 µM (inactive),24.5 µM (inactive),> 50 µM (inactive),> 50 µM (inactive),> 50 µM (inactive),22.5 µM (inactive),> 50 µM (inactive),–,25.4 µM (inactive),> 50 µM (inactive),> 50 µM (inactive),12.5 µM (inactive)
Cc1ccc(S(=O)(=O)N2CCC(=O)c3cc(Br)ccc32)cc1,10.1 µM (inactive),13.6 µM (inactive),16.8 µM (inactive),4.88,18.6 µM (inactive),3.24 µM (inactive),6.44 µM (inactive),4.51 µM (inactive),22 µM (inactive),7.93 µM (inactive),9.93 µM (inactive),42.4 µM (inactive),18.4 µM (inactive),3.96 µM (inactive),23.1 µM (inactive),10.7 µM (inactive),5.21 µM (inactive),–,14.6 µM (inactive),–
NC1C/C(=N\O)c2c(Cl)sc(Cl)c21 (stereo not drawn),18.1 µM (inactive),29.3 µM (inactive),21.8 µM (inactive),15.6,22.9 µM (inactive),12 µM (inactive),–,9.73 µM (inactive),19.5 µM (inactive),–,17.3 µM (inactive),21.7 µM (inactive),31.3 µM (inactive),20.1 µM (inactive),18.7 µM (inactive),17.5 µM (inactive),–,59.3 µM (inactive),25.2 µM (inactive),3.17 µM (inactive)
Nn1c(Nc2ccc(S(N)(=O)=O)cc2)nnc(/C=C/c2c(O)ccc3ccccc23)c1=O,24.4 µM (inactive),28.1 µM (inactive),30.3 µM (inactive),12.8,–,19.6 µM (inactive),–,0.234 µM (active),15.7 µM (inactive),13.5 µM (inactive),13 µM (inactive),21.6 µM (inactive),32.5 µM (inactive),8.77 µM (inactive),15 µM (inactive),–,18.7 µM (inactive),31 µM (inactive),–,4.03 µM (inactive)
